Reference: patent publication US20240335424A1, “COMPOSITIONS AND METHODS FOR TREATING LIPOMA PAIN” (Raziel Therapeutics Ltd., priority 2021, published 2024)
Entries after “also recorded” stand apart in the source; their conditions may differ.

Experiments:
Assay type in all cases: in vivo, human
[1] = system: Dercum's disease (DD) lipomas; experiment: Phase 2b clinical trial: lipoma/nodule height by ultrasound; conditions: day 84 after injection vs. baseline, compared to placebo
Source text: The clinical trial described herein was a double-blind, randomized, placebo-controlled phase 2b clinical trial for the evaluation of safety and efficacy of Compound 1 (5-(3,6-dibromo-9H-carbazol-9-yl)-N,N,N-trimethylpentan-1-aminium, provided as a chloride salt, also designated Compound 1A), in subjects having Dercum's disease (DD) lipomas. Study Objectives. The primary objective was to evaluate the average percent reduction in lipoma height on day 84 after injection vs. baseline in the treatment group compared to the placebo group. Efficacy was determined by ultrasound assessment of the lipoma/nodule dimensions after treatment vs. baseline. The key secondary objective was assessment of lipoma/nodule associated pain using the Comparative Pain Scale. Safety was assessed by frequency of adverse events and by change-from-baseline values for vital signs, clinical laboratory and ECG. Study Design. […] Dosing was calculated according to lipoma size (diameter) as determined by ultrasound. […] Primary endpoint was the average percent reduction in lipoma/noduleheight on day 84 after injection vs baseline-evaluated by ultrasound in the Compound 1 treatment group compared to the placebo group. Key secondary endpoint was reduction in local pain score per lipoma/nodule on Day 84 vs. baseline as measured by the Comparative Pain Scale. […]

[2] = Phase 2b clinical trial: safety (adverse events, vital signs, clinical laboratory, ECG); conditions: up to 200 mg/subject, subcutaneous injection into lipomas
Source text: The clinical trial described herein was a double-blind, randomized, placebo-controlled phase 2b clinical trial for the evaluation of safety and efficacy of Compound 1 (5-(3,6-dibromo-9H-carbazol-9-yl)-N,N,N-trimethylpentan-1-aminium, provided as a chloride salt, also designated Compound 1A), in subjects having Dercum's disease (DD) lipomas.
Study Objectives. The primary objective was to evaluate the average percent reduction in lipoma height on day 84 after injection vs. baseline in the treatment group compared to the placebo group. Efficacy was determined by ultrasound assessment of the lipoma/nodule dimensions after treatment vs. baseline. The key secondary objective was assessment of lipoma/nodule associated pain using the Comparative Pain Scale. Safety was assessed by frequency of adverse events and by change-from-baseline values for vital signs, clinical laboratory and ECG.
Study Design. This was a double blind, multi-center, randomized, placebo-controlled clinical trial in DD subjects having lipomas. A total of 38 DD patients were enrolled into the study. Patients were randomized in approximately a 1:1 ratio into either the intervention or the placebo arm. Twenty (20) subjects, having a total of 125 lipomas, were treated with Compound 1. Eighteen (18) subjects, having a total of 110 lipomas, were treated with placebo. Once the study ended and codes were opened, 84 days after dosing.
At least 4 lipomas/nodules, preferably 6, and no more than 8, were injected per subject. Compound 1 dose per injection site was 5 mg, and a distance of 1-3 cm between injection points was maintained, to allow good distribution of Compound 1 within lipoma fat. A maximal dose of up to 240 mg/subject (a total of 48 injections of 5 mg/injection) was allowed in this study and the highest actual tested dose was 200 mg/subject (40 injections into 4-8 lipomas). A total of 20 patients were treated with Compound 1 and a total of 18 patients were treated with placebo.

[3] = system: Dercum's disease (DD) lipomas; experiment: Phase 2b clinical trial: lipoma pain by Comparative Pain Scale; conditions: for Pain Score: Average per patient, Mean / Pain score: All lipomas, Mean: Comparative Pain Scale 0-10; for Pain score: All lipomas, Mean / Change from baseline in Pain Score: All lipomas, Relative Change from baseline, Mean: per lipoma analysis
Source text: The clinical trial described herein was a double-blind, randomized, placebo-controlled phase 2b clinical trial for the evaluation of safety and efficacy of Compound 1 (5-(3,6-dibromo-9H-carbazol-9-yl)-N,N,N-trimethylpentan-1-aminium, provided as a chloride salt, also designated Compound 1A), in subjects having Dercum's disease (DD) lipomas. Study Objectives. The primary objective was to evaluate the average percent reduction in lipoma height on day 84 after injection vs. baseline in the treatment group compared to the placebo group. Efficacy was determined by ultrasound assessment of the lipoma/nodule dimensions after treatment vs. baseline. The key secondary objective was assessment of lipoma/nodule associated pain using the Comparative Pain Scale. Safety was assessed by frequency of adverse events and by change-from-baseline values for vital signs, clinical laboratory and ECG. Study Design. This was a double blind, multi-center, randomized, placebo-controlled clinical trial in DD subjects having lipomas. A total of 38 DD patients were enrolled into the study. Patients were randomized in approximately a 1:1 ratio into either the intervention or the placebo arm. Twenty (20) subjects, having a total of 125 lipomas, were treated with Compound 1. Eighteen (18) subjects, having a total of 110 lipomas, were treated with placebo. Once the study ended and codes were opened, 84 days after dosing. Subjects received their study treatment on a single occasion in multiple injections. Dosing was calculated according to lipoma size (diameter) as determined by ultrasound. Subjects were dosed in accordance with Table 1. Injections were perpendicular (90°) to injected skin surface and spread randomly, at least 1 cm apart. At least 4 lipomas/nodules, preferably 6, and no more than 8, were injected per subject. Compound 1 dose per injection site was 5 mg, and a distance of 1-3 cm between injection points was maintained, to allow good distribution of Compound 1 within lipoma fat. A maximal dose of up to 240 mg/subject (a total of 48 injections of 5 mg/injection) was allowed in this study and the highest actual tested dose was 200 mg/subject (40 injections into 4-8 lipomas). A total of 20 patients were treated with Compound 1 and a total of 18 patients were treated with placebo. Primary endpoint was the average percent reduction in lipoma/noduleheight on day 84 after injection vs baseline-evaluated by ultrasound in the Compound 1 treatment group compared to the placebo group. Key secondary endpoint was reduction in local pain score per lipoma/nodule on Day 84 vs. baseline as measured by the Comparative Pain Scale. Comparative pain scale ranked the pain from a score from 0 to 10. A score of 0 indicated no pain, a score of 1-3 indicated minor pain, a score of 4-6 indicated moderate pain and a score of 7-10 indicated severe pain. Pain was compared between the intervention (Compound 1) and placebo groups on 2 levels-(1) on the patient level and (2) by lipomas, i.e. comparison between all injected lipomas before and after injection. Study Drug. Compound 1 was administered as a ready to use liquid for injection into subcutaneous fat, supplied in a 1 vial kit. Each vial contains 250 mg Compound 1/5 mL (50 mg/ml) solution Compound 1 in a vehicle comprised of water, propylene glycol and surfactant. The formulation is described in Table 2. Placebo was a solution comprised of vehicle only. Each injection of Compound 1 and placebo contained 0.1 ml. The vehicle was a ready-to-use liquid for injection into subcutaneous fat, supplied in a 1-vial kit. One vial contained 5 mL and had similar composition as the Compound 1 drug product, without the active substance. The components are: Tween-80, propylene glycol, benzyl alcohol, and water. The vehicle was manufactured and packed by […] (Israel) and complies with cGMP requirements. […]

[4] = Day 84, compared to the placebo group
[5] = Visit 2 - Baseline/Treatment (Day 0), prior to injection
[6] = Visit 5 - Day 28 post treatment
[7] = Visit 6 - Day 56 post treatment
[8] = Visit 7 - Day 84 post treatment

C[N+](C)(C)CCCCCn1c2ccc(Br)cc2c2cc(Br)ccc21 [Compound 1, 5-(3,6-dibromo-9H-carbazol-9-yl)-N,N,N-trimethylpentan-1-aminium]
reduction in lipoma height [1]: not significant
adverse events, kind [2]: mostly injection site edema pain and pruritus
changes in blood parameters [2]: no clinically significant changes in blood parameters
serious adverse events [2]: no reported serious adverse events
tolerability [2]: generally well tolerated
average pain reduction per patient (by-patient analysis) ([3]; 84 days after treatment, vs. 36.82% in placebo, P=0.98 as printed): 56.37%
average pain reduction per lipoma (all-lipoma analysis) ([3]; 84 days after treatment, vs. 37.50% in placebo, p=0.0004 t-test, p 0.079 mixed model): 59.06%
reduction in pain vs. placebo, by-lipoma analysis [3, 4]: significant reduction in pain per lipoma; also recorded: statistically significant reduction in pain
reduction of pain vs. placebo, per-patient analysis [3, 4]: a trend for reduction of pain
Pain Score: Average per patient, Mean [3, 5]: 4.89
Pain score: All lipomas, Mean [3, 5]: 4.86
Change from baseline in Pain Score: Average per patient, Relative Change from baseline, Mean [3, 6]: −41.76%
Pain Score: Average per patient, Mean [3, 6]: 2.82
Pain score: All lipomas, Mean [3, 6]: 2.72
Change from baseline in Pain Score: All lipomas, Relative Change from baseline, Mean [3, 6]: −41.55%
Change from baseline in Pain Score: Average per patient, Relative Change from baseline, Mean [3, 7]: −43.53%
Pain Score: Average per patient, Mean [3, 7]: 2.56
Pain score: All lipomas, Mean [3, 7]: 2.38
Change from baseline in Pain Score: All lipomas, Relative Change from baseline, Mean [3, 7]: −46.74%
Change from baseline in Pain Score: Average per patient, Relative Change from baseline, Mean [3, 8]: −56.37%
Pain Score: Average per patient, Mean [3, 8]: 2.03
Pain score: All lipomas, Mean [3, 8]: 1.86
Change from baseline in Pain Score: All lipomas, Relative Change from baseline, Mean [3, 8]: −59.06%
effect of a single dose injected into lipomas on lipoma-associated pain ([3]; single dose, via a single injection or multiple injections): significantly alleviates lipoma-associated pain
